From the Kinase Knowledgebase extract (Sharma et al. 2016)

Target: CDK2 (UniProt P24941)
Assay: Enzyme Assay
Settings: concentration not given here

Row | inhibition [%] | SMILES
1 | 100 | NC(=O)c1cc(-c2ccccc2)sc1NC(=O)C(F)c1ccccc1 (configuration not stated)
2 | 100 | CC(C)c1cc(C(N)=O)c(NC(=O)Cc2ccsc2)s1
3 | 100 | COc1cccc(C(=O)Nc2sc(Cc3ccccc3)cc2C(N)=O)c1O
4 | 100 | COc1cc(C(=O)Nc2sc(Cc3ccccc3)cc2C(N)=O)ccc1C
5 | 100 | CC(C)c1cc(C(N)=O)c(NC(=O)c2cccc(F)c2)s1
6 | 100 | Cc1cnc(C(=O)Nc2sc(C(C)C)cc2C(N)=O)cn1
7 | 100 | COc1cc(C(=O)Nc2sc(Cc3ccccc3)cc2C(N)=O)ccc1O
8 | 100 | NC(=O)c1cc(Cc2ccccc2)sc1NC(=O)c1c[nH]cn1
9 | 100 | CC1=C(C(=O)Nc2sc(C(C)c3ccccc3)cc2C(N)=O)Cc2ccccc21 (configuration not stated)
10 | 100 | COc1ccc(C(=O)Nc2sc(C)c(C)c2C(N)=O)cc1Cl
11 | 100 | CCC(=O)Nc1sc2c(c1C(N)=O)CCCC2
12 | 100 | COc1ccc2c(c1)C(CC(=O)Nc1sc3c(c1C(N)=O)CCN(C)C3)C(=O)C2 (configuration not stated)
13 | 100 | NC(=O)CN(C(=O)c1ccco1)c1sc(Cc2ccccc2)cc1C(N)=O
14 | 100 | Cc1csc(NC(=O)c2ccc(S(C)(=O)=O)cc2)c1C(N)=O
15 | 100 | Cc1sc(NC(=O)c2ccc(Cl)c(Cl)c2)c(C(N)=O)c1C
16 | 100 | Cc1sc(NC(=O)c2coc3ccccc3c2=O)c(C(N)=O)c1C
17 | 100 | COc1cccc2cc(C(=O)Nc3sc(C)c(C)c3C(N)=O)oc12
18 | 100 | Cc1csc(NC(=O)CCCc2cccs2)c1C(N)=O
19 | 100 | CN(C)CCCC(=O)Nc1sc(Cc2ccccc2)cc1C(N)=O
20 | 100 | CN1CCc2c(sc(NC(=O)/C=C\C(=O)Nc3cccc4ccccc34)c2C(N)=O)C1
21 | 100 | NC(=O)c1c(NC(=O)c2cccnc2)sc2c1CCCC2
22 | 100 | CN1CCc2c(sc(NC(=O)c3ccc(I)cc3)c2C(N)=O)C1
